In publication PMC9030166, “Natural Phaeosphaeride A Derivatives Overcome Drug Resistance of Tumor Cells and Modulate Signaling Pathways” (Pharmaceuticals, 2022):
Where “and” joins values, the source holds several entries; their conditions need not be identical. Equal entries are not always repeated.

Tests used:
Assay type in all cases: cell-based
A431 cells = test: IC50 on A431 cells (xCelligence RTCA cell index); conditions: Homo sapiens, A-431
From the text: A431 cells are characterized by a high inducibility of transcription factors STAT3 and STAT5. In turn, phaeosphaeride A and its derivatives are probably inhibitors of the STAT3 gene. Therefore, the A431 cell line was chosen as a model for searching for possible targets for the action of phaeosphaeride A derivatives. Table 7 presents IC50 data for phaeosphaeride A derivatives on A431 cells.
The effect of various concentrations of PPA derivatives on the cell culture was studied using xCelligence RTCA equipment (AceaBioscience, San Diego, CA, USA). The concentration closest to the IC50 (10 μM) was chosen as the experimental concentration. The selected concentration of phaeosphaeride A derivatives allows for the assessment of the early effect of compounds on cells and compares their effectiveness. In this experiment, the signaling pathways Akt (pSer473), p70S6K (pThr412), NFkB (p65-pSer536), and CREB (pSer133) were not activated (Table 8). The stress-activated signaling pathways ERK/MAP kinase 1/2 (pThr185/pTyr187), JNK (pThr183/pTyr185), and p38 (pThr180/pTyr182) were activated for these compounds.
To determine the integral cellular response using the xCelligence RTCA equipment (AceaBioscience, Santa Clara, CA, USA), 20 thousand cells were inoculated into a well of a specialized plate allowing the determination of the cell index in real time and cultured in complete growth medium. The next day after the seeding, the medium was replaced with an experimental one (compounds at concentrations of […]). The cell index was monitored for 3 days after the addition of the xenobiotic. The concentration closest to the IC50 (10 μM) was chosen as the experimental concentration.

K562 = test: MTT cytotoxicity, K562 chronic myeloid leukemia cells; conditions: Homo sapiens, K562, suspension culture, 48 h (Table 2)
From the text: Cell cultures used in the work: adhesive cultures HBL-100 cells (cells of a normal mammary gland epithelium, immortalized by the SV40 virus and acquired tumorigenicity); MCF-7 breast cancer cells; PC-3 prostate adenocarcinoma cells; HCT-116 colorectal cancer cells; non-small cell lung cancer cells A549; human embryonic kidney cells HEK293; suspension cultures (NCI-H929 and RPMI8226 multiple myeloma cells), K562 chronic myeloid leukemia cells; THP-1 acute monocytic leukemia cells; and Jurkat acute T-cell leukemia cells. We also used several primary cultures of soft tissue sarcomas at 3–4passeges, kindly provided by T.I. Fetisov (The Ethics Committee of N.N. Blokhin NMRCO, protocol code 18-28-09095 and date of approval 28 September 2018).
Modifications of cell lines: K562/i-S9 is a clone obtained after transfection of K562 cells with the ABCB1 (MDR1) gene-encoding P-glycoprotein [36]. Cells HBL-100/Dox and K562/i-S9_Dox are cells obtained by long-term selection with increasing concentrations of doxorubicin (Sigma-Aldrich, St. Louis, MO, USA) from HBL-100 and K562/i-S9 cells, respectively. MCF-7, A594 cells, and primary cultures of soft tissue sarcomas were cultured in DMEM medium (PanEko, Russia), PC-3 and HCT-116 cells and all suspension cultures in RPMI1640 medium (PanEko, Russia) supplemented with 10% fetal bovine serum (GE Healthcare LifeSciences, USA), and gentamicin at a concentration of 40 μg/mL at 37 °C and 5% CO2.
Cells MCF-7, PC-3, A549, and HCT-116, and primary cultures of STSwere seeded in 96-well plates, 6 × 10^3 cells per well in 90 μL of culture medium. Suspension cultures were seeded at a concentration of 25 × 10^3 cells per well in 135 μL of medium. The test substances were dissolved in DMSO (Applichem, Council Bluffs, IA, USA) until a concentration of 1 × 10^−^2 M was obtained; for the subsequent dilution of the substances, a serum-free culture medium was used. The next day, for adhesive cultures, and on the same day, for suspension cultures, substances were added to the plates in a volume of 10 μL (adhesive cultures) and 15 μL (suspension cultures) per well at various concentrations; each concentration was added in 3–4 repetitions. The cells were cultured in the presence of substances for 48 h. Then, MTT reagent (PanEko, Moscow, Russia) was added to the wells at a concentration of 5 mg/mL in a volume of 20 μL per well. After 1.5–2 h, the medium with the reagent was removed, and the precipitate of the crystals of formazan was dissolved in 60 μL of DMSO. The optical density was determined using a Multiskan FC spectrophotometer (Thermo Scientific, Waltham, MA, USA) at a wavelength of 540 nm.
Based on the results of the experiments, a schedule was plotted of the dependence of the percentage of surviving cells (from control) on the concentration of the compound, and the sought concentration IC50 was calculated. The experiments were carried out in 3–4 times.

P-glycoprotein = target: T1, P-glycoprotein (Homo sapiens, UniProt P08183); test: Release of rhodamine 123 (Rd123) from K562/i-S9_Dox cells, flow cytometry; conditions: K562/i-S9_Dox cells after Rd123 release, compound 20 μM, 35 min; release without compound 17.1 ± 6.6
T1 construct: expressed in transfected cells; host or cells: K562/i-S9_Dox (K562 transfected with ABCB1/MDR1, then selected with increasing doxorubicin)
T1 sequence (P08183 whole entry): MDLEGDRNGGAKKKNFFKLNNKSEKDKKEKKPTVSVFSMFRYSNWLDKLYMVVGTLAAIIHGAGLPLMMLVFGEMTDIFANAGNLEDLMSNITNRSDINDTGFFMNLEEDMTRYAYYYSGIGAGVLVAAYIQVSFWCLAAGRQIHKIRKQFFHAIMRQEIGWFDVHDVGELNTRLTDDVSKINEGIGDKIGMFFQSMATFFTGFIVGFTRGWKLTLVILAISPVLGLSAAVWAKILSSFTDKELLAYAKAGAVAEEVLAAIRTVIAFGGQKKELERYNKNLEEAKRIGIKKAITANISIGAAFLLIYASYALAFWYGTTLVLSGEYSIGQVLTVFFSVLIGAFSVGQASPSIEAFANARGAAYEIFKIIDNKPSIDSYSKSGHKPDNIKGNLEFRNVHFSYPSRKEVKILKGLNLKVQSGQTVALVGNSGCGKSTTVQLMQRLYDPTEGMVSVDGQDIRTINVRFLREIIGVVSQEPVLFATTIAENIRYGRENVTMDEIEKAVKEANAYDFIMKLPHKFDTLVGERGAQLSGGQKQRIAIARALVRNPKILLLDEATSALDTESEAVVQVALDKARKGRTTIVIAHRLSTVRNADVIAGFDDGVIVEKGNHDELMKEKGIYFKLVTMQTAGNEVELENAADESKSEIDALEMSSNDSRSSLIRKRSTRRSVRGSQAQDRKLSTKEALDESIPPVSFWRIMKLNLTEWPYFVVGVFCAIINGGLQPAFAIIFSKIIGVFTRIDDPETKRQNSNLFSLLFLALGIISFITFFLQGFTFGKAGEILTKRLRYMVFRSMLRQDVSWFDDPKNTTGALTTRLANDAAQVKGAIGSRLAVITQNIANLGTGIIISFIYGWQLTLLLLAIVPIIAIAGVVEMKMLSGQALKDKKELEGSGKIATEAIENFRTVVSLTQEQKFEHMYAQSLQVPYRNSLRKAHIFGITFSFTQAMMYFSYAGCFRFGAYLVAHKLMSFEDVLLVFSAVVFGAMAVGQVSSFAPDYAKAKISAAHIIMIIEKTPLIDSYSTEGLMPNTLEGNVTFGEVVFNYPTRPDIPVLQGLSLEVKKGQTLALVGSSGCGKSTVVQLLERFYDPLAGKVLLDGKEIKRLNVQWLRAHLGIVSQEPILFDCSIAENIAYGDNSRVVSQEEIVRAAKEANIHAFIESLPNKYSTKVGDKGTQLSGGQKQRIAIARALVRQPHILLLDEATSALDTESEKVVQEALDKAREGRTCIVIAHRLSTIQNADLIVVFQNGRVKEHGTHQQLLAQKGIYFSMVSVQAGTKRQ
Protocol: The principle of the test is as follows: Rd123 is a fluorophore and a known P-gp substrate. During incubation, Rd123 enters the cells by simple diffusion, and then Rd123 begins to interact with P-gp, which releases it from the cell. Cells in which Rd123 is present are stained and can be detected by flow cytometry. The more efficiently P-gp works, the less stained cells in the population remain over time.
The experiment used K562/i-S9_Dox cells with P-gp overexpression. Cells (5 × 10^5 per point) were incubated with Rd123 at a concentration of 3.5 μg/mL for 20 min in serum-free RPMI1640 medium. Furthermore, the efficiency of Rd123 entry into cells was assessed. […] Incubation with substances took place for 35 min in 1 mL of serum-free medium. Then, the cells were precipitated, washed with PBS solution, and the % of stained cells in the population were assessed on a flow cytometer.

IC50 (A431 cells)	% Luminous Cells (P-glycoprotein)	Compound	IC50 (K562)
1.9 µM	82% and 82.4 ± 3.0%	C=C1C2=C(C(=O)N1OC)[C@@H](N(C)C)[C@@](C)(O)[C@H](CCCCC)O2 [Compound 2, (2S,3R,4R)-4-(dimethylamino)-3-hydroxy-6-methoxy-3-methyl-7-methylene-2-pentyl-3,4,6,7-tetrahydropyrano[2,3-c]pyrrol-5(2H)-one]	2.4 ± 0.7 µM
4.6 µM	80% and 80.2 ± 6.2%	C=C1C2=C(C(=O)N1OC)[C@@H](N(CC)CCO)[C@@](C)(O)[C@H](CCCCC)O2 [Compound 9, (2S,3R,4R)-4-[ethyl(2-hydroxyethyl)amino]-3-hydroxy-6-methoxy-3-methyl-7-methylene-2-pentyl-3,4,6,7-tetrahydropyrano[2,3-c]pyrrol-5(2H)-one]	3.7 ± 0.5 µM
3.7 µM	73% and 73.4 ± 6.7%	C=C1C2=C(C(=O)N1OC)[C@@H](N1CCCC1)[C@@](C)(O)[C@H](CCCCC)O2 [Compound 1]	3.8 ± 0.6 µM
> 50 µM		CCCCC[C@@H]1OC2=C(C(=O)N(OC)/C2=C\n2cnnc2)C(n2cnnc2)[C@@]1(C)O (stereo partly shown) [Compound 10]	45 ± 5.4 µM
> 50 µM		C=C1C2=C(C(=O)N1OC)[C@@H](N(CCCC)CCCC)[C@@](C)(O)[C@H](CCCCC)O2 [Compound 5, (2S,3R,4R)-4-(dibutylamino)-3-hydroxy-6-methoxy-3-methyl-7-methylene-2-pentyl-3,4,6,7-tetrahydropyrano[2,3-c]pyrrol-5(2H)-one]	6.5 ± 0.5 µM
